Measured values published in ChEMBL document CHEMBL4219047, “Optimization of peptide-based polyagonists for treatment of diabetes and obesity” (Bioorg Med Chem, 2018).
Where a SMILES comes first, the peptide text is derived from it. Bridges are numbered along the chain shown (N, C = ends).

What was measured:
Format in all cases: functional, cell-based
[1] = target: T1, Glucagon-like peptide 1 receptor (Homo sapiens, UniProt P43220); experiment: Agonist activity at human GLP1 receptor expressed in HEK293 cells assessed as increase in cAMP level after 5 hrs by CRE driven luciferase reporter gene assay
Glucagon receptor [2] = target: T2, Glucagon receptor (Homo sapiens, UniProt P47871); experiment: Agonist activity at human GCG receptor expressed in HEK293 cells assessed as increase in cAMP level after 5 hrs by CRE driven luciferase reporter gene assay
[3] = target: T3, Gastric inhibitory polypeptide receptor (Homo sapiens, UniProt P48546); experiment: Agonist activity at human GIP receptor expressed in HEK293 cells assessed as increase in cAMP level after 5 hrs by CRE driven luciferase reporter gene assay
T3 sequence (P48546 whole entry): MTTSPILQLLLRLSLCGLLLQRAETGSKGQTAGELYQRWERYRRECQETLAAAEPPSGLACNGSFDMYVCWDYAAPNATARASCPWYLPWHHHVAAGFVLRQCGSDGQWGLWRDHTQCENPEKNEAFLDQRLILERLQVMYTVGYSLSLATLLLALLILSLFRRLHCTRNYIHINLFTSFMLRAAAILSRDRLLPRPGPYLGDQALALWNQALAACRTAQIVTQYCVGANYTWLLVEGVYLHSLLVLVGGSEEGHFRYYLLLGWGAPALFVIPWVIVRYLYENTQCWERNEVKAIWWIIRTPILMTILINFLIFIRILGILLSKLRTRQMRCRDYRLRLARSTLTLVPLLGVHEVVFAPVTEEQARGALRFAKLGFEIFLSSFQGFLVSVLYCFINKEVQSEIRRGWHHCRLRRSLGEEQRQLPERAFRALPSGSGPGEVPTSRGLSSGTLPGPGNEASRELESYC

[4] = target: T1, Glucagon-like peptide 1 receptor; experiment: Agonist activity at human GLP1 receptor expressed in HEK293 cells assessed as increase in cAMP level after 5 hrs by CRE driven luciferase reporter gene assay relative to GLP1; design: concentration or dose not given beside the values
Glucagon receptor [5] = target: T2, Glucagon receptor; experiment: Agonist activity at human GCG receptor expressed in HEK293 cells assessed as increase in cAMP level after 5 hrs by CRE driven luciferase reporter gene assay relative to glucagon
[6] = target: T4, Gastric inhibitory polypeptide receptor (Homo sapiens) (UniProt P48546); experiment: Agonist activity at human GIP receptor expressed in HEK293 cells assessed as increase in cAMP level after 5 hrs by CRE driven luciferase reporter gene assay relative to GIP; design: concentration or dose not given beside the values
T4 sequence (whole entry): T3 sequence (P48546 whole entry)

T2 sequence (P47871 whole entry): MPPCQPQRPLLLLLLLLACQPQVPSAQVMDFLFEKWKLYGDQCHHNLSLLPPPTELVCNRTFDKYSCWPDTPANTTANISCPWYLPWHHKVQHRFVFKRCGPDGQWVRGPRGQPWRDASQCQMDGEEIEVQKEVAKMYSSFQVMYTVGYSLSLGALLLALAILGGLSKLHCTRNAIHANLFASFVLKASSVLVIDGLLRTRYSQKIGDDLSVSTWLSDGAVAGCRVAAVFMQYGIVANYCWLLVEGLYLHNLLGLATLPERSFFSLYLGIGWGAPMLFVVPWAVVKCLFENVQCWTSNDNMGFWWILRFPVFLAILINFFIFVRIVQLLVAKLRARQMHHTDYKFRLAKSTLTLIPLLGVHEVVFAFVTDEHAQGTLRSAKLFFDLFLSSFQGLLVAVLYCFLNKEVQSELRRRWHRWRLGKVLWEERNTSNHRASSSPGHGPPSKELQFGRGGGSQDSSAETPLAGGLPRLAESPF
T1 sequence (P43220 whole entry): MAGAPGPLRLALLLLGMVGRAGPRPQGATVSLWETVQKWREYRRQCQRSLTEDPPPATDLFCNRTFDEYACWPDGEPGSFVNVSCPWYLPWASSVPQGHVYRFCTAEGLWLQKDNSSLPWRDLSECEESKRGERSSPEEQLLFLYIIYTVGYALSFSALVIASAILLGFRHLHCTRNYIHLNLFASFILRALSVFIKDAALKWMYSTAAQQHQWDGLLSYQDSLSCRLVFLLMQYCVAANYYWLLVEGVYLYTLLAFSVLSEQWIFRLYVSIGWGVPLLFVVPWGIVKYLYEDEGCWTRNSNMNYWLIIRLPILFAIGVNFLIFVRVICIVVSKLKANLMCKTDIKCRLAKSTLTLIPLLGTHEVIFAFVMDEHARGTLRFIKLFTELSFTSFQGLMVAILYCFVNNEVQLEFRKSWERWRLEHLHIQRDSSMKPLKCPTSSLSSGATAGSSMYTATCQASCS

EC50 [1] [pM]	EC50 (Glucagon receptor [2]) [pM]	EC50 [3] [pM]	Activity [4] [%]	Activity (Glucagon receptor [5]) [%]	Activity [6] [%]	SMILES
115	16	5830	24	200	0	CCCCCCCCCCCCCCCC(=O)N[C@@H](CCC(=O)NCCCC[C@H](NC(=O)[C@H](CC(=O)O)NC(=O)[C@H](CO)NC(=O)[C@@H](NC(=O)[C@H](Cc1ccccc1)NC(=O)[C@@H](NC(=O)CNC(=O)[C@H](CCC(N)=O)NC(=O)CN(C)C(=O)[C@@H](N)Cc1cnc[nH]1)[C@@H](C)O)[C@@H](C)O)C(=O)N[C@@H](CO)C(=O)N[C@@H](CCCCN)C(=O)N[C@@H](Cc1ccc(O)cc1)C(=O)N[C@@H](CC(C)C)C(=O)N[C@@H](CC(=O)O)C(=O)N[C@@H](CCC(=O)O)C(=O)N[C@@H](CCCNC(=N)N)C(=O)N[C@@H](C)C(=O)N[C@@H](C)C(=O)N[C@@H](CCC(N)=O)C(=O)N[C@@H](CC(=O)O)C(=O)N[C@@H](Cc1ccccc1)C(=O)N[C@H](C(=O)N[C@@H](CCC(N)=O)C(=O)N[C@@H](Cc1c[nH]c2ccccc12)C(=O)N[C@@H](CC(C)C)C(=O)N[C@@H](CC(C)C)C(=O)N[C@@H](CC(=O)O)C(=O)N[C@H](C(N)=O)[C@@H](C)O)C(C)C)C(=O)O
20	30	6260	126	104	0	CC[C@H](C)[C@H](NC(=O)[C@H](Cc1ccccc1)NC(=O)[C@H](CCC(=O)O)NC(=O)[C@@H]1CCCCNC(=O)CC[C@H](NC(=O)[C@H](CC(=O)O)NC(=O)[C@H](CC(C)C)NC(=O)[C@H](Cc2ccc(O)cc2)NC(=O)[C@H](CCCCN)NC(=O)[C@H](CO)NC(=O)[C@H](Cc2ccc(O)cc2)NC(=O)[C@H](CC(=O)O)NC(=O)[C@H](CO)NC(=O)[C@@H](NC(=O)[C@H](Cc2ccccc2)NC(=O)[C@@H](NC(=O)CNC(=O)[C@H](CCC(N)=O)NC(=O)[C@H](CO)NC(=O)[C@@H](N)Cc2cnc[nH]2)[C@@H](C)O)[C@@H](C)O)C(=O)N[C@@H](CCC(N)=O)C(=O)N[C@@H](C)C(=O)N[C@@H](C)C(=O)N1)C(=O)N[C@@H](C)C(=O)N[C@@H](Cc1c[nH]c2ccccc12)C(=O)N[C@@H](CC(C)C)C(=O)N[C@@H](CCSC)C(=O)N[C@@H](CC(N)=O)C(=O)N[C@H](C(N)=O)[C@@H](C)O (H-HSQGTFTSDYSKYLDEQAAKEFIAWLMNT-NH2; lactam 16-20)
3	6	1650	933	533	1	CCCCCCCCCCCCCCCC(=O)N[C@@H](CCC(=O)NCCCC[C@H](NC(=O)[C@H](CC(=O)O)NC(=O)[C@H](CO)NC(=O)[C@@H](NC(=O)[C@H](Cc1ccccc1)NC(=O)[C@@H](NC(=O)CNC(=O)[C@H](CCC(N)=O)NC(=O)[C@@H](CO)NC(=O)[C@@H](N)Cc1cnc[nH]1)[C@@H](C)O)[C@@H](C)O)C(=O)N[C@@H](CO)C(=O)N[C@@H](CCCCN)C(=O)N[C@@H](Cc1ccc(O)cc1)C(=O)N[C@@H](CC(C)C)C(=O)N[C@@H](CC(=O)O)C(=O)N[C@@H](CCC(=O)O)C(=O)N[C@@H](CCCNC(=N)N)C(=O)N[C@@H](C)C(=O)N[C@@H](C)C(=O)N[C@@H](CCC(N)=O)C(=O)N[C@@H](CC(=O)O)C(=O)N[C@@H](Cc1ccccc1)C(=O)N[C@H](C(=O)N[C@@H](CCC(N)=O)C(=O)N[C@@H](Cc1c[nH]c2ccccc12)C(=O)N[C@@H](CC(C)C)C(=O)N[C@@H](CC(C)C)C(=O)N[C@@H](CC(=O)O)C(=O)N[C@H](C(N)=O)[C@@H](C)O)C(C)C)C(=O)O
93	5	1100	30	640	2	CCCCCCCCCCCCCCCC(=O)N[C@@H](CCC(=O)NCCCC[C@H](NC(=O)[C@H](CC(=O)O)NC(=O)[C@H](CO)NC(=O)[C@@H](NC(=O)[C@H](Cc1ccccc1)NC(=O)[C@@H](NC(=O)CNC(=O)[C@H](CCC(N)=O)NC(=O)CNC(=O)[C@@H](N)Cc1cnc[nH]1)[C@@H](C)O)[C@@H](C)O)C(=O)N[C@@H](CO)C(=O)N[C@@H](CCCCN)C(=O)N[C@@H](Cc1ccc(O)cc1)C(=O)N[C@@H](CC(C)C)C(=O)N[C@@H](CC(=O)O)C(=O)N[C@@H](CCC(=O)O)C(=O)N[C@@H](CCCNC(=N)N)C(=O)N[C@@H](C)C(=O)N[C@@H](C)C(=O)N[C@@H](CCC(N)=O)C(=O)N[C@@H](CC(=O)O)C(=O)N[C@@H](Cc1ccccc1)C(=O)N[C@H](C(=O)N[C@@H](CCC(N)=O)C(=O)N[C@@H](Cc1c[nH]c2ccccc12)C(=O)N[C@@H](CC(C)C)C(=O)N[C@@H](CC(C)C)C(=O)N[C@@H](CC(=O)O)C(=O)N[C@H](C(N)=O)[C@@H](C)O)C(C)C)C(=O)O
